Laboratory results as given in the supplement of paper PMC4862054.

tested on: CAL-51; test: normalised response (% of control), CellTiter-Glo; higher = more viable cells (100 = DMSO, 0 = benzethonium chloride kill control); conditions: incubation time: 72 h
Outline: (§1)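 Normalised signals at single concentrations make up the values. They come from breast cancer cell lines seeded (20 µl suspension) into 384-well plates with compound at 5 concentrations in 10-fold steps over a compound-specific 10,000-fold range, incubated 72 h, and read for CellTox Green fluorescence then CellTiter-Glo luminescence. Each plate was normalised to 0.1 % DMSO (100) and a positive kill control (0).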

Compound	normalised response
N#Cc1ccc(C(c2ccc(C#N)cc2)n2cncn2)cc1 [Letrozole] (1 nM)	121%
CC[C@H](Nc1ncnc2[nH]cnc12)c1nc2cccc(F)c2c(=O)n1-c1ccccc1 [GS-1101] (1 nM)	101%
O=C(O)C(=O)O.[NH-][C@@H]1CCCC[C@H]1[NH-].[Pt+2] [Oxaliplatin] (10 nM)	124%
C=CC(=O)Nc1cc2c(Nc3ccc(F)c(Cl)c3)ncnc2cc1OCCCN1CCOCC1 [Canertinib] (10 nM)	84.3%
CC(=O)Nc1cccc(-n2c(=O)n(C3CC3)c(=O)c3c(Nc4ccc(I)cc4F)n(C)c(=O)c(C)c32)c1 [Trametinib] (0.25 nM)	122%
C=CC(=O)N1CCC[C@@H](n2nc(-c3ccc(Oc4ccccc4)cc3)c3c(N)ncnc32)C1 [Ibrutinib] (1 nM)	102%
CCCCC(=O)OCC(=O)[C@]1(O)Cc2c(O)c3c(c(O)c2[C@@H](O[C@H]2C[C@H](NC(=O)C(F)(F)F)[C@H](O)[C@H](C)O2)C1)C(=O)c1c(OC)cccc1C3=O [Valrubicin] (0.5 nM)	87.8%
COc1cc2nccc(Oc3ccc(NC(=O)Nc4cc(C)on4)c(Cl)c3)c2cc1OC [Tivozanib] (10 nM)	85.4%
CCN(CC)CCCC(C)Nc1c2ccc(Cl)cc2nc2ccc(OC)cc12 (stereo not given) [Mepacrine] (5 nM)	97.8%
CCCS(=O)(=O)Nc1ccc(F)c(C(=O)c2c[nH]c3ncc(-c4ccc(Cl)cc4)cc23)c1F [Vemurafenib] (10 nM)	109%
CCCS(=O)(=O)Nc1ccc(F)c(C(=O)c2c[nH]c3ncc(-c4ccc(Cl)cc4)cc23)c1F [Vemurafenib] (1 nM)	92.5%
CC1=C(/C=C/C(C)=C/C=C/C(C)=C/C(=O)O)C(C)(C)CCC1 [Tretinoin] (10 nM)	81%
Cc1ccc(-c2cc(C(F)(F)F)nn2-c2ccc(S(N)(=O)=O)cc2)cc1 [Celecoxib] (1 nM)	88.1%
Oc1ncc(N(CCCl)CCCl)c(O)n1 [Uracil mustard] (1 nM)	115%
Nc1ccccc1NC(=O)c1ccc(CNC(=O)OCc2cccnc2)cc1 [Entinostat] (1 nM)	85.2%
C=CC(=O)Nc1cc2c(Nc3ccc(F)c(Cl)c3)ncnc2cc1OCCCN1CCOCC1 [Canertinib] (1 nM)	104%

tested on: CAL-148; test: as above; conditions: incubation time: 72 h
Outline: as §1

Compound	normalised response
C=CC(=O)N1CCC[C@@H](n2nc(-c3ccc(Oc4ccccc4)cc3)c3c(N)ncnc32)C1 [Ibrutinib] (0.1 nM)	101%
Nc1nc2[nH]cc(CCc3ccc(C(=O)N[C@@H](CCC(=O)O)C(=O)O)cc3)c2c(=O)[nH]1 [Pemetrexed] (1 nM)	98.9%
COc1cc2nccc(Oc3ccc(NC(=O)Nc4cc(C)on4)c(Cl)c3)c2cc1OC [Tivozanib] (1 nM)	94.3%
COc1cc2c(NC3CCN(C(C)C)CC3)nc(C3CCCCC3)nc2cc1OCCCN1CCCC1 [UNC0638] (1 nM)	86.8%
CNC(=O)c1cc(Oc2ccc(NC(=O)Nc3cc(C(C)(C)C)nn3-c3ccc4ncccc4c3)c(F)c2)ccn1 [Rebastinib] (0.1 nM)	104%
N#Cc1ccc(C(c2ccc(C#N)cc2)n2cncn2)cc1 [Letrozole] (1 nM)	92%
CC[C@H](Nc1ncnc2[nH]cnc12)c1nc2cccc(F)c2c(=O)n1-c1ccccc1 [GS-1101] (1 nM)	84.8%
O=C(O)C(=O)O.[NH-][C@@H]1CCCC[C@H]1[NH-].[Pt+2] [Oxaliplatin] (10 nM)	83.7%
C=CC(=O)Nc1cc2c(Nc3ccc(F)c(Cl)c3)ncnc2cc1OCCCN1CCOCC1 [Canertinib] (10 nM)	102%
CC(=O)Nc1cccc(-n2c(=O)n(C3CC3)c(=O)c3c(Nc4ccc(I)cc4F)n(C)c(=O)c(C)c32)c1 [Trametinib] (0.25 nM)	111%
C=CC(=O)N1CCC[C@@H](n2nc(-c3ccc(Oc4ccccc4)cc3)c3c(N)ncnc32)C1 [Ibrutinib] (1 nM)	114%
CCCCC(=O)OCC(=O)[C@]1(O)Cc2c(O)c3c(c(O)c2[C@@H](O[C@H]2C[C@H](NC(=O)C(F)(F)F)[C@H](O)[C@H](C)O2)C1)C(=O)c1c(OC)cccc1C3=O [Valrubicin] (0.5 nM)	94%
COc1cc2nccc(Oc3ccc(NC(=O)Nc4cc(C)on4)c(Cl)c3)c2cc1OC [Tivozanib] (10 nM)	82.1%
CCN(CC)CCCC(C)Nc1c2ccc(Cl)cc2nc2ccc(OC)cc12 (stereo not given) [Mepacrine] (5 nM)	94.5%
CCCS(=O)(=O)Nc1ccc(F)c(C(=O)c2c[nH]c3ncc(-c4ccc(Cl)cc4)cc23)c1F [Vemurafenib] (10 nM)	87.8%
CCCS(=O)(=O)Nc1ccc(F)c(C(=O)c2c[nH]c3ncc(-c4ccc(Cl)cc4)cc23)c1F [Vemurafenib] (1 nM)	84.2%
CC1=C(/C=C/C(C)=C/C=C/C(C)=C/C(=O)O)C(C)(C)CCC1 [Tretinoin] (10 nM)	97.8%
Cc1ccc(-c2cc(C(F)(F)F)nn2-c2ccc(S(N)(=O)=O)cc2)cc1 [Celecoxib] (1 nM)	102%
Oc1ncc(N(CCCl)CCCl)c(O)n1 [Uracil mustard] (1 nM)	101%
Nc1ccccc1NC(=O)c1ccc(CNC(=O)OCc2cccnc2)cc1 [Entinostat] (1 nM)	98.2%
C=CC(=O)Nc1cc2c(Nc3ccc(F)c(Cl)c3)ncnc2cc1OCCCN1CCOCC1 [Canertinib] (1 nM)	103%

tested on: SK-BR-3; test: as above; conditions: incubation time: 72 h
Outline: as §1

Compound	normalised response
C=CC(=O)N1CCC[C@@H](n2nc(-c3ccc(Oc4ccccc4)cc3)c3c(N)ncnc32)C1 [Ibrutinib] (0.1 nM)	109%
Nc1nc2[nH]cc(CCc3ccc(C(=O)N[C@@H](CCC(=O)O)C(=O)O)cc3)c2c(=O)[nH]1 [Pemetrexed] (1 nM)	101%
COc1cc2nccc(Oc3ccc(NC(=O)Nc4cc(C)on4)c(Cl)c3)c2cc1OC [Tivozanib] (1 nM)	91.2%
COc1cc2c(NC3CCN(C(C)C)CC3)nc(C3CCCCC3)nc2cc1OCCCN1CCCC1 [UNC0638] (1 nM)	90.8%
CNC(=O)c1cc(Oc2ccc(NC(=O)Nc3cc(C(C)(C)C)nn3-c3ccc4ncccc4c3)c(F)c2)ccn1 [Rebastinib] (0.1 nM)	113%
N#Cc1ccc(C(c2ccc(C#N)cc2)n2cncn2)cc1 [Letrozole] (1 nM)	106%
CC[C@H](Nc1ncnc2[nH]cnc12)c1nc2cccc(F)c2c(=O)n1-c1ccccc1 [GS-1101] (1 nM)	88%
O=C(O)C(=O)O.[NH-][C@@H]1CCCC[C@H]1[NH-].[Pt+2] [Oxaliplatin] (10 nM)	98.4%
C=CC(=O)Nc1cc2c(Nc3ccc(F)c(Cl)c3)ncnc2cc1OCCCN1CCOCC1 [Canertinib] (10 nM)	91%
CC(=O)Nc1cccc(-n2c(=O)n(C3CC3)c(=O)c3c(Nc4ccc(I)cc4F)n(C)c(=O)c(C)c32)c1 [Trametinib] (0.25 nM)	105%
C=CC(=O)N1CCC[C@@H](n2nc(-c3ccc(Oc4ccccc4)cc3)c3c(N)ncnc32)C1 [Ibrutinib] (1 nM)	98.1%
CCCCC(=O)OCC(=O)[C@]1(O)Cc2c(O)c3c(c(O)c2[C@@H](O[C@H]2C[C@H](NC(=O)C(F)(F)F)[C@H](O)[C@H](C)O2)C1)C(=O)c1c(OC)cccc1C3=O [Valrubicin] (0.5 nM)	97.9%
COc1cc2nccc(Oc3ccc(NC(=O)Nc4cc(C)on4)c(Cl)c3)c2cc1OC [Tivozanib] (10 nM)	80.7%
